Assay results reported in US9840513B2 (AbbVie S.à.r.l., priority 2015, dated 2017).

Molecular target: T1, F508delCFTR cell surface expression in CFBE41o-F508delCFTR-HRP cells (Homo sapiens, UniProt P13569, DEL508-508)
T1 construct: fused on or other part: Horseradish peroxidase (HRP) reporter inserted in the fourth exofacial (extracellular) loop of CFTR; expression is doxycycline-inducible
Assay: Cell Surface Expression-Horse Radish Peroxidase (CSE-HRP) Assay
Format: cell-based
Conditions: for EC50: CFBE41o-F508delCFTR-HRP cells, 18-24 hours at 33° C., 8-point curve, highest concentration 20 μM; for Maximum % activity (%): maximum at any tested concentration, normalized to on-plate positive control (3 μM)
How it was run: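 CFBE41o- cells with HRP-tagged F508delCFTR, expression induced by 0.5 μg/mL doxycycline for 72 h at 37 °C, then compound for 18-24 h at 33 °C (8-point, 3-fold, top 20 μM). Surface HRP measured by luminol luminescence; % activity normalised to 3 μM positive-control corrector; EC50 from variable-slope sigmoidal fit, three replicate plates.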

T1 sequence (P13569 with tags, fused parts or gaps DEL508-508 limits assumed): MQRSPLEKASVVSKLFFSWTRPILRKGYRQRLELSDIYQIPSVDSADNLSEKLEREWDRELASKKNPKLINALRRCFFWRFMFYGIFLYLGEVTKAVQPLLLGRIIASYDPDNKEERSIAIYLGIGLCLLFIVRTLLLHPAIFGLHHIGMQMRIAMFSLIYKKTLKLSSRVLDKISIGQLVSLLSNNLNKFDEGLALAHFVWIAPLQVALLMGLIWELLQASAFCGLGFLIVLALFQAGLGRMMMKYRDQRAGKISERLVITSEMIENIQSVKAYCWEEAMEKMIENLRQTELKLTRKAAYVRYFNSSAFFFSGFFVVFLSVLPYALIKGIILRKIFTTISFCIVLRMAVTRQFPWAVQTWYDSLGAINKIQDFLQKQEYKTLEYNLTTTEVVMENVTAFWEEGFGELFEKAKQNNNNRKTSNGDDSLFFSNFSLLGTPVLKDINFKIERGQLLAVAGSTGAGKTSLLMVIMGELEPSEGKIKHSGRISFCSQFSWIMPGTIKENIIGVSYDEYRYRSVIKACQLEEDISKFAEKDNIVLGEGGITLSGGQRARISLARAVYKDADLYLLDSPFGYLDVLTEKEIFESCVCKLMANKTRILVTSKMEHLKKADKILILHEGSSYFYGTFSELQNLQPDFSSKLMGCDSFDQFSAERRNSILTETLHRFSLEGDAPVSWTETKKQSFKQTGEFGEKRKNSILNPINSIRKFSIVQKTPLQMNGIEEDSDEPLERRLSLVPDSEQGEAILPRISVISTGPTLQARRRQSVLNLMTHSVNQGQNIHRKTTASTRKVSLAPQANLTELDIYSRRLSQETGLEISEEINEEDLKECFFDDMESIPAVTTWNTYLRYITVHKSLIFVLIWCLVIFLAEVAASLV
T1 sequence (P13569 919-1480 limits assumed, stated change not applied): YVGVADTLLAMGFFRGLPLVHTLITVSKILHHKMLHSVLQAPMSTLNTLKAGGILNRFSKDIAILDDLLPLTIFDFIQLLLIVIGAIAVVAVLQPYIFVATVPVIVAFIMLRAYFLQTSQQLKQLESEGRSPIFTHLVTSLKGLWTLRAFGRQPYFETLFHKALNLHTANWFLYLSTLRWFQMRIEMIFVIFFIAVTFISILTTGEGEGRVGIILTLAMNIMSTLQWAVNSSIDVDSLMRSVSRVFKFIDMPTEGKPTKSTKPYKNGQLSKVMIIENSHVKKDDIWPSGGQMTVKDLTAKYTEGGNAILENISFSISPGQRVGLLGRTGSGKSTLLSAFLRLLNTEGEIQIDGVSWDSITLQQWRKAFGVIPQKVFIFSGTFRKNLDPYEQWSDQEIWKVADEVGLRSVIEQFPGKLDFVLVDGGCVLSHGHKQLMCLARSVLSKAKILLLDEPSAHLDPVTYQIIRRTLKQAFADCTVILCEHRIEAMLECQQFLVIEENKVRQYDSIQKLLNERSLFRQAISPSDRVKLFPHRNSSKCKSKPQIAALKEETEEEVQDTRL

| EC50 | Maximum % activity (%) | SMILES |
| --- | --- | --- |
| 80 nM | 125% | COc1ccc2c(c1)O[C@@H](c1ccc(C(=O)NC3c4ccccc4CC3O)cn1)C[C@H]2NC(=O)[C@@]1(C)COc2cc3c(cc21)OC(F)(F)O3 (stereo partly drawn) [Example 221, 6-[(2R,4R)-4-{[(7R)-2,2-difluoro-7-methyl-6,7-dihydro-2H-furo[2,3-f][1,3]benzodioxole-7-carbonyl]amino}-7-methoxy-3,4-dihydro-2H-1-benzopyran-2-yl]-N-(2-hydroxy-2,3-dihydro-1H-inden-1-yl)pyridine-3-carboxamide] |
| 20 nM | 116% | COc1ccc2c(c1)O[C@@H](c1ccc(C(=O)NC(CO)c3ccccc3OC)cn1)C[C@H]2NC(=O)[C@@]1(C)COc2cc3c(cc21)OC(F)(F)O3 (stereo partly drawn) [Example 222, 6-[(2R,4R)-4-{[(7R)-2,2-difluoro-7-methyl-6,7-dihydro-2H-furo[2,3-f][1,3]benzodioxole-7-carbonyl]amino}-7-methoxy-3,4-dihydro-2H-1-benzopyran-2-yl]-N-[2-hydroxy-1-(2-methoxyphenyl)ethyl]pyridine-3-carboxamide] |
| 70 nM | 157% | COc1ccc2c(c1)O[C@@H](c1ccc(C(=O)N3CCC(F)(F)CC3)cc1)C[C@H]2NC(=O)[C@@]1(C)COc2cc3c(cc21)OC(F)(F)O3 [Example 223, (7R)—N-{(2R,4R)-2-[4-(4,4-difluoropiperidine-1-carbonyl)phenyl]-7-methoxy-3,4-dihydro-2H-1-benzopyran-4-yl}-2,2-difluoro-7-methyl-6,7-dihydro-2H-furo[2,3-f][1,3]benzodioxole-7-carboxamide] |
| 310 nM | 199% | C[C@]1(C(=O)N[C@@H]2C[C@H](C3CCN(C(=O)OCc4ccccc4)CC3)Oc3cc(OC(F)(F)F)ccc32)COc2cc3c(cc21)OC(F)(F)O3 [Example 224, benzyl 4-[(2R,4R)-4-{[(7R)-2,2-difluoro-7-methyl-6,7-dihydro-2H-furo[2,3-f][1,3]benzodioxole-7-carbonyl]amino}-7-(trifluoromethoxy)-3,4-dihydro-2H-1-benzopyran-2-yl]piperidine-1-carboxylate] |
| 4020 nM | 54% | C[C@]1(C(=O)N[C@H]2C[C@@H](C3CCN(C(=O)OCc4ccccc4)CC3)Oc3cc(OC(F)(F)F)ccc32)COc2cc3c(cc21)OC(F)(F)O3 [Example 225, benzyl 4-[(2S,4S)-4-{[(7R)-2,2-difluoro-7-methyl-6,7-dihydro-2H-furo[2,3-f][1,3]benzodioxole-7-carbonyl]amino}-7-(trifluoromethoxy)-3,4-dihydro-2H-1-benzopyran-2-yl]piperidine-1-carboxylate] |
| > 20000 nM | 18% | CC1(C)OC[C@H](CN2CCC([C@@H]3C[C@H](NC(=O)[C@@]4(C)COc5cc6c(cc54)OC(F)(F)O6)c4ccc(OC(F)(F)F)cc4O3)CC2)O1 [Example 226, (7R)—N-[(2S,4S)-2-(1-{[(4S)-2,2-dimethyl-1,3-dioxolan-4-yl]methyl}piperidin-4-yl)-7-(trifluoromethoxy)-3,4-dihydro-2H-1-benzopyran-4-yl]-2,2-difluoro-7-methyl-6,7-dihydro-2H-furo[2,3-f][1,3]benzodioxole-7-carboxamide] |
| 70 nM | 113% | COc1ccc2c(c1)O[C@@H](c1ccc(C(=O)NCC(N)=O)cn1)C[C@H]2NC(=O)[C@@]1(C)COc2cc3c(cc21)OC(F)(F)O3 [Example 227, N-(2-amino-2-oxoethyl)-6-[(2R,4R)-4-{[(7R)-2,2-difluoro-7-methyl-6,7-dihydro-2H-furo[2,3-f][1,3]benzodioxole-7-carbonyl]amino}-7-methoxy-3,4-dihydro-2H-1-benzopyran-2-yl]pyridine-3-carboxamide] |
| 90 nM | 108% | COc1ccc2c(c1)O[C@@H](c1ccc(C(=O)NCCCC(N)=O)cn1)C[C@H]2NC(=O)[C@@]1(C)COc2cc3c(cc21)OC(F)(F)O3 [Example 228, N-(4-amino-4-oxobutyl)-6-[(2R,4R)-4-{[(7R)-2,2-difluoro-7-methyl-6,7-dihydro-2H-furo[2,3-f][1,3]benzodioxole-7-carbonyl]amino}-7-methoxy-3,4-dihydro-2H-1-benzopyran-2-yl]pyridine-3-carboxamide] |
| 110 nM | 118% | COc1ccc2c(c1)O[C@@H](c1ccc(C(=O)NC(C)CC(N)=O)cn1)C[C@H]2NC(=O)[C@@]1(C)COc2cc3c(cc21)OC(F)(F)O3 (stereo partly drawn) [Example 229, N-(4-amino-4-oxobutan-2-yl)-6-[(2R,4R)-4-{[(7R)-2,2-difluoro-7-methyl-6,7-dihydro-2H-furo[2,3-f][1,3]benzodioxole-7-carbonyl]amino}-7-methoxy-3,4-dihydro-2H-1-benzopyran-2-yl]pyridine-3-carboxamide] |
| 60 nM | 115% | COc1ccc2c(c1)O[C@@H](c1ccc(C(=O)NCCS(C)(=O)=O)cn1)C[C@H]2NC(=O)[C@@]1(C)COc2cc3c(cc21)OC(F)(F)O3 [Example 230, 6-[(2R,4R)-4-{[(7R)-2,2-difluoro-7-methyl-6,7-dihydro-2H-furo[2,3-f][1,3]benzodioxole-7-carbonyl]amino}-7-methoxy-3,4-dihydro-2H-1-benzopyran-2-yl]-N-[2-(methanesulfonyl)ethyl]pyridine-3-carboxamide] |
| 250 nM | 103% | COc1ccc2c(c1)O[C@@H](c1ccc(C(=O)NCC3CNC(=O)C3)cn1)C[C@H]2NC(=O)[C@@]1(C)COc2cc3c(cc21)OC(F)(F)O3 (stereo partly drawn) [Example 231, 6-[(2R,4R)-4-{[(7R)-2,2-difluoro-7-methyl-6,7-dihydro-2H-furo[2,3-f][1,3]benzodioxole-7-carbonyl]amino}-7-methoxy-3,4-dihydro-2H-1-benzopyran-2-yl]-N-[(5-oxopyrrolidin-3-yl)methyl]pyridine-3-carboxamide] |
| 260 nM | 117% | COc1ccc2c(c1)O[C@@H](c1ccc(C(=O)NC3CCNC(=O)C3)cn1)C[C@H]2NC(=O)[C@@]1(C)COc2cc3c(cc21)OC(F)(F)O3 (stereo partly drawn) [Example 232, 6-[(2R,4R)-4-{[(7R)-2,2-difluoro-7-methyl-6,7-dihydro-2H-furo[2,3-f][1,3]benzodioxole-7-carbonyl]amino}-7-methoxy-3,4-dihydro-2H-1-benzopyran-2-yl]-N-(2-oxopiperidin-4-yl)pyridine-3-carboxamide] |
| 50 nM | 112% | COc1ccc2c(c1)O[C@@H](c1ccc(C(=O)N3CCN(S(N)(=O)=O)CC3)cn1)C[C@H]2NC(=O)[C@@]1(C)COc2cc3c(cc21)OC(F)(F)O3 [Example 233, (7R)-2,2-difluoro-N-{(2R,4R)-7-methoxy-2-[5-(4-sulfamoylpiperazine-1-carbonyl)pyridin-2-yl]-3,4-dihydro-2H-1-benzopyran-4-yl}-7-methyl-6,7-dihydro-2H-furo[2,3-f][1,3]benzodioxole-7-carboxamide] |
| 40 nM | 112% | COc1ccc2c(c1)O[C@@H](c1ccc(C(=O)N(C)CCO)cn1)C[C@H]2NC(=O)[C@@]1(C)COc2cc3c(cc21)OC(F)(F)O3 [Example 234, 6-[(2R,4R)-4-{[(7R)-2,2-difluoro-7-methyl-6,7-dihydro-2H-furo[2,3-f][1,3]benzodioxole-7-carbonyl]amino}-7-methoxy-3,4-dihydro-2H-1-benzopyran-2-yl]-N-(2-hydroxyethyl)-N-methylpyridine-3-carboxamide] |
